# From patent US5213974A, “Fermentation process for preparing antibiotics mureidomycins A, B, C and D” (priority 1986, dated 1993)
# How the values were obtained:
# [1] = system: mice; test: Toxicity in mice, intravenous; assay type: in vivo
# [2] = Solubility in water and organic solvents; assay type: physicochemical
# [3] = system: Pseudomonas aeruginosa SANK 73379; test: MIC, two-fold agar dilution method, Mueller-Hinton agar; assay type: cell-based
# Protocol: (§1) The minimal inhibitory concentrations (MIC) of mureidomycins A, B, C and D against various gram-positive and gram-negative bacteria were determined by the two-fold agar dilution method, using a Mueller-Hinton agar medium (produced by Difco).
# [4] = system: Pseudomonas aeruginosa NRRLB 1000; test: as above; assay type: cell-based
# Protocol: as §1
# [5] = system: Pseudomonas aeruginosa SANK 70970; test: as above; assay type: cell-based
# Protocol: as §1
# [6] = system: Proteus mirabilis SANK 70461; test: as above; assay type: cell-based
# Protocol: as §1
# [7] = system: Pseudomonas aeruginosa NCTC 10490; test: as above; assay type: cell-based
# Protocol: as §1
# [8] = system: Pseudomonas aeruginosa SANK 73279; test: as above; assay type: cell-based
# Protocol: as §1
# [9] = system: Pseudomonas aeruginosa SANK 75775; test: as above; assay type: cell-based
# Protocol: as §1
# [10] = system: Pseudomonas aeruginosa ATCC 13388; test: as above; assay type: cell-based
# Protocol: as §1
# [11] = system: Pseudomonas aeruginosa SANK 70579; test: as above; assay type: cell-based
# Protocol: as §1
# [12] = system: Pseudomonas aeruginosa SANK 75175; test: as above; assay type: cell-based
# Protocol: as §1
# [13] = system: Pseudomonas acidovorans SANK 72782; test: as above; assay type: cell-based
# Protocol: as §1
# [14] = system: Pseudomonas aeruginosa SANK 70479; test: as above; assay type: cell-based
# Protocol: as §1
# [15] = system: Pseudomonas aeruginosa SANK 71873; test: as above; assay type: cell-based
# Protocol: as §1
# [16] = system: Esherichia coli NIHJ JC-2; test: as above; assay type: cell-based
# Protocol: as §1
# [17] = system: Pseudomonas aeruginosa SANK 73375; test: as above; assay type: cell-based
# Protocol: as §1
# [18] = system: Staphylococcus aureus FDA 209P JC-1; test: as above; assay type: cell-based
# Protocol: as §1
# [19] = system: Klebsiella pneumoniae PCI 602; test: as above; assay type: cell-based
# Protocol: as §1
# [20] = system: Serratia marcescens SANK 73060; test: as above; assay type: cell-based
# Protocol: as §1
# [21] = system: gram-negative bacteria, particularly bacteria of the genus Pseudomonas; test: Antibacterial activity, summary of the MIC data; assay type: cell-based
# Protocol: as §1
# From the above data, mureidomycins A, B, C and D are active against gram-negative bacteria, particularly against bacteria of the genus Pseudomonas.
Molecule,Solubility ([2]; acetone),Solubility ([2]; benzene),Solubility ([2]; chloroform),Solubility ([2]; ethyl acetate),Solubility ([2]; methanol),Solubility ([2]; water),MIC [3],MIC [4],MIC [5],MIC [6],MIC [7],MIC [8],MIC [9],MIC [10],MIC [11],MIC [12],MIC [13],MIC [14],MIC [15],MIC [16],further results
"CSCC[C@H](NC(=O)NC(Cc1cccc(O)c1)C(=O)O)C(=O)N[C@@H](C(=O)NC=C1CC(O)C(n2ccc(=O)[nH]c2=O)O1)C(C)N(C)C(=O)[C@@H](N)Cc1cccc(O)c1 (some centres unmarked) [Mureidomycin A, mureidomycin A]",slightly soluble,insoluble,insoluble,insoluble,Soluble,Soluble,100 µg/mL,25 µg/mL,12.5 µg/mL,> 200 µg/mL,0.4 µg/mL,12.5 µg/mL,6.25 µg/mL,25 µg/mL,< 0.1 µg/mL,25 µg/mL,> 200 µg/mL,6.25 µg/mL,6.25 µg/mL,> 200 µg/mL,"toxicity ([1]; mice, 400 mg/kg intravenously): No toxicity was observed; MIC [17]: 12.5 µg/mL; MIC [18]: 200 µg/mL; MIC [19]: 25 µg/mL; MIC [20]: > 200 µg/mL; activity against gram-negative bacteria [21]: active"
"CSCC[C@H](NC(=O)NC(Cc1cccc(O)c1)C(=O)O)C(=O)N[C@@H](C(=O)N/C=C1\CC(O)C(N2CCC(=O)NC2=O)O1)C(C)N(C)C(=O)[C@@H](N)Cc1cccc(O)c1 (some centres unmarked) [Mureidomycin B, mureidomycin B]",slightly soluble,insoluble,insoluble,insoluble,Soluble,Soluble,200 µg/mL,50 µg/mL,25 µg/mL,> 200 µg/mL,0.8 µg/mL,25 µg/mL,200 µg/mL,50 µg/mL,0.2 µg/mL,50 µg/mL,200 µg/mL,12.5 µg/mL,25 µg/mL,> 200 µg/mL,"toxicity ([1]; mice, 400 mg/kg intravenously): No toxicity was observed; MIC [17]: 25 µg/mL; MIC [18]: > 200 µg/mL; MIC [19]: 25 µg/mL; MIC [20]: > 200 µg/mL; activity against gram-negative bacteria [21]: active"
"CSCC[C@H](NC(=O)NC(Cc1cccc(O)c1)C(=O)O)C(=O)N[C@@H](C(=O)NC=C1CC(O)C(n2ccc(=O)[nH]c2=O)O1)C(C)N(C)C(=O)[C@H](Cc1cccc(O)c1)NC(=O)CN (some centres unmarked) [Mureidomycin C, mureidomycin C]",slightly soluble,insoluble,insoluble,insoluble,Soluble,Soluble,6.25 µg/mL,3.13 µg/mL,1.56 µg/mL,> 200 µg/mL,0.4 µg/mL,1.56 µg/mL,1.56 µg/mL,3.13 µg/mL,< 0.1 µg/mL,3.13 µg/mL,> 200 µg/mL,1.56 µg/mL,1.56 µg/mL,> 200 µg/mL,"toxicity ([1]; mice, 400 mg/kg intravenously): No toxicity was observed; MIC [17]: 3.13 µg/mL; MIC [18]: > 200 µg/mL; MIC [19]: 12.5 µg/mL; MIC [20]: > 200 µg/mL; activity against gram-negative bacteria [21]: active"
mureidomycin D,slightly soluble,insoluble,insoluble,insoluble,Soluble,Soluble,50 µg/mL,6.25 µg/mL,3.13 µg/mL,> 200 µg/mL,1.56 µg/mL,6.25 µg/mL,6.25 µg/mL,6.25 µg/mL,0.2 µg/mL,12.5 µg/mL,100 µg/mL,6.25 µg/mL,6.25 µg/mL,> 200 µg/mL,"toxicity ([1]; mouse, in vivo, iv, 400 mg/kg): No toxicity was observed; MIC [17]: 6.25 µg/mL; MIC [18]: > 200 µg/mL; MIC [19]: 25 µg/mL; MIC [20]: > 200 µg/mL; activity against gram-negative bacteria [21]: active"
